Measured values: US7138433B2, “Quinone-based therapeutic agent for hepatopathy” (Eisai Co., Ltd., priority 2002, dated 2006)

Legend:
[1] = test system: hepatocellular carcinoma patients after treatment; assay: Trial Example 2: trial of VK-II in inhibiting recurrence of hepatocellular carcinoma after treatment; type: in vivo, human; details: for risk ratio for recurrence of hepatic cancer: Cox proportional hazard model, control group = 1; for time period until 50% recurrence: control group 10 months
Experimental: A trial was carried out as follows with an objective of investigating the effect and safety of VK-II in inhibiting recurrence of hepatocellular carcinoma after treatment. 61 cases in which hepatocellular carcinoma was diagnosed and then after treatment therefor necrosis (or curative excision) was judged by contrast CT to have completely occurred were entered from March 1999 to March 2001, the entered cases were divided into two groups, namely a VK-II-administered group for which the end of the patient ID number was an odd number and a non-administered group (control group) for which the end of the patient ID number was an even number, and a VK-II preparation (proprietary name […], made by Eisai Co., Ltd.) was orally administered at a dose of 45 mg/day to the administered group. Contrast CT or MRI was carried out every 3 months, and a statistical analysis of the time period until recurrence was carried out. Specifically, comparison was carried out using the Kaplan-Meier method (log-rank test), and the risk ratio for recurrence was analyzed using the Cox proportional hazard model.

[2] = test system: DCP-producing HCC cell line; details: in vitro; Hepatology 1995, 22:876-82; cited from earlier work
[3] = cited from earlier work
MMP-1 = assay: MMP protein expression in hepatic cancer cells, Western blot; type: cell-based; details: VK-II added to hepatic cancer cells
From the text: (§1) The action of VK-II according to the present application with regard to invasion/metastasis of hepatic cancer cells was studied in vitro. The action on invasion ability was investigated through an invasion assay using HepG2 cells and a Matrigel chamber. […] Regarding the action on the metastasis ability, the action of VK-II on the expression of extracellular matrix metalloproteinases (MMPs) was investigated using the Western blot method. […] From the above, although the data is in vitro, it can be presumed that VK-II inhibits invasion/metastasis of hepatic cancer cells.

MMP-3 = assay: as above; type: cell-based; details: VK-II added to hepatic cancer cells
From the text: as §1

[4] = test system: DCP positive hepatic cancer patients; assay: Trial Example 1: randomized prospective controlled clinical trial of oral VK-II after hepatic cancer treatment; type: in vivo, human; details: treated group
Experimental: A clinical trial (randomized prospective controlled study) was carried out as follows.
Out of patients with hepatocellular carcinoma, ones having a serum DCP level above 60 IU/L (DCP positive hepatic cancer) were included in the trial. On the other hand, patients having portal venous invasion, and patients in which there was already VK metabolism through administration of VK or an anti-VK agent, were excluded from the trial.
126 hepatic cancer patients were given treatment from February 1999 to November 2001. As the hepatic cancer treatment, percutaneous cauterization therapy (RFA and/or PEIT) for HCC, treatment via the blood vessels (TAE or TAI), or surgical excision was carried out. Of the patients, 5 were excluded from the present trial.
Next, the remaining 121 patients were randomly divided into a treated group (n=60) and an untreated group (n=61). The treated group were orally administered 45 mg/day of VK-II (proprietary name Glakay, made by Eisai Co., Ltd.) after the hepatic cancer treatment, while the untreated group were not administered VK-II.
Follow-up tests were carried out after the hepatic cancer treatment. As the follow-up tests, ultrasonography (abdominal echography) was carried out every 3 months, a CT scan was carried out every 6 months, and the levels of the tumor markers alpha-fetoprotein and DCP were measured every one month.
Statistical analysis was carried out on the PVI incidence rate and the survival rate for the two groups. That is, calculations were carried out using the Cox proportional hazard model, and a test was carried out using the log-rank method. The average observation period was 12±8 months.

HepG2 cells = assay: Invasion assay using HepG2 cells and a Matrigel chamber; type: cell-based; details: upon adding VK-II; depending on the concentration
From the text: as §1

CC(C)=CCC/C(C)=C/CC/C(C)=C/CC/C(C)=C/CC1=C(C)C(=O)c2ccccc2C1=O [VK-II, 2-methyl-3-tetraprenyl-1,4-naphthoquinone]
side effects ([1]; 45 mg/day oral): no side effects | risk ratio for recurrence of hepatic cancer ([1]; HCV cases only): 0.210 | risk ratio for recurrence of hepatic cancer ([1]; all cases): 0.329 | time period until 50% recurrence ([1]; HCV cases only): 26 months | 1-year cumulative recurrence rate ([1]; HCV cases only, control group 61.5%): 7.1% | 2-year cumulative recurrence rate ([1]; HCV cases only, control group 87.2%): 37.8% | DCP upon recurrence ([1]; all cases of recurrence in the VK-II-administered group): negative | 1-year cumulative recurrence rate ([1]; all cases, 45 mg/day oral, control group 55.2%): 12.5% | 2-year cumulative recurrence rate ([1]; all cases, 45 mg/day oral, control group 85.5%): 39.6% | time period until 50% recurrence ([1]; all cases): 26 months | hepatic cancer cumulative recurrence rate compared with the control group ([1]; excluding cases of local recurrence (29 vs 22 cases)): statistically significantly suppressed | hepatic cancer cumulative recurrence rate compared with the control group ([1]; excluding cases of recurrence within 6 months (31 vs 22 cases)): statistically significantly suppressed | cell proliferation [2]: inhibited | solubility in water [3]: hardly dissolves in water | MMP-1 protein expression (MMP-1): inhibited | MMP-3 protein expression (MMP-3): inhibited | PVI incidence rate ([4]; after 1 year, 45 mg/day oral, untreated group 23%): 2% | survival rate ([4]; after 2 years, 45 mg/day oral, untreated group 28% (P=0.044)): 66% | PVI incidence rate ([4]; after 2 years, 45 mg/day oral, untreated group 47% (P=0.018)): 23% | DCP level in the serum after hepatic cancer treatment ([4]; 45 mg/day oral VK-II (Glakay), for 12 months, untreated group gradually increased): remained approximately constant | number of cells passing through the Matrigel (HepG2 cells): dropped
